Target: T1, human TRPV4 (Homo sapiens, UniProt Q9HBA0)
T1 construct: expressed in transfected cells; host or cells: HEK293 MSRII cells (BacMam transduction)
Assay: Ligand-gated assay: FLIPR assay for human TRPV4 expressed in HEK293 MSRII cells
Type: cell-based
Conditions: HEK293 MSRII cells transduced with BacMam virus expressing human TRPV4; Fluo-4 calcium signal; agonist at EC80; read-out: activity (inhibition of Agonist Compound-induced calcium signal)
Source text: FLIPR Assay for Human TRPV4 Expressed in HEK293 MSRII Cells
TRPV4 channel activation results in an influx of divalent and monovalent cations including calcium. The resulting changes in intracellular calcium were monitored using a calcium specific fluorescent dye Fluo-4 (MDS Analytical Technologies). HEK293 MSRII cells (human embryonic kidney 293 cells stably expressing the macrophage scavenger receptor class II) transduced with BacMam virus expressing the human TRPV4 gene at 1% final concentration were plated in a 384 well poly-D lysine coated plate (15,000 cells/well in 50 μL culture medium containing DMEM/F12 with 15 mM HEPES, 10% FBS, 1% Penicillin-Streptomycin and 1% L-glutamine). Cells were incubated for 24-72 hours at 37° C. and 5% CO2. Culture medium was then aspirated using a Tecan plate-washer and replaced with 20 μL/well of dye loading buffer: HBSS, 500 μM Brilliant Black (MDS Analytical Technologies), and 2 μM Fluo-4 AM. Dye loaded plates were then incubated in the dark at room temperature for 1-1.5 hours. […] Calcium signals were measured using FLIPR^TETRA (MDS Analytical Technologies) or FLIPR384 (MDS Analytical Technologies) and the inhibition of Agonist Compound-induced calcium signal by the test compound was determined.

T1 sequence (Q9HBA0 whole entry): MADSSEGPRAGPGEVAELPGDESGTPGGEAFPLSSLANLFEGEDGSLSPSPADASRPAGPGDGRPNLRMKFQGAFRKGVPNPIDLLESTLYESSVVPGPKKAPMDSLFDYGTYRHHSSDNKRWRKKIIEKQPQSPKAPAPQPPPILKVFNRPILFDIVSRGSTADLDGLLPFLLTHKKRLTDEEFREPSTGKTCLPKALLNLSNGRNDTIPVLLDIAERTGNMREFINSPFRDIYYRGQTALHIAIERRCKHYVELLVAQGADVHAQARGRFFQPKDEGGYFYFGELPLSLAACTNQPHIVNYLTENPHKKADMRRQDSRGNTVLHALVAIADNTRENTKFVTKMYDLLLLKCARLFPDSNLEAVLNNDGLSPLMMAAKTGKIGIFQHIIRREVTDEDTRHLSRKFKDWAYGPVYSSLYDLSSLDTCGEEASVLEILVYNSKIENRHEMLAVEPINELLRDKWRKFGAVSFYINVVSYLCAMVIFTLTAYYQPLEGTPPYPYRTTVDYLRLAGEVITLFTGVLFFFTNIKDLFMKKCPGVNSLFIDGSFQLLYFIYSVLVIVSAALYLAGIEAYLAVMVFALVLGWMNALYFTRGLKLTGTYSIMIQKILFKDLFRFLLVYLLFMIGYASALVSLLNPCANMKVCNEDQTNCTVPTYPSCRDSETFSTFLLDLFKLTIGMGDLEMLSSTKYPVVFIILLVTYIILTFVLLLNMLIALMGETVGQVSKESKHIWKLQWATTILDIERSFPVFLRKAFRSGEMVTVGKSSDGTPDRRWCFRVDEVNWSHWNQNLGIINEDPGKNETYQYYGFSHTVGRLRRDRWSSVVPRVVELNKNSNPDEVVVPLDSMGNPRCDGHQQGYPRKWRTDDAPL

- IC50: 6.3 nM
SMILES: N#Cc1ccc2ncn(C[C@@]3(O)CCC[C@@]4(CN(c5cnc(C6CC6)cn5)C(=O)O4)C3)c2c1 [Compound A, 1-(((5S,7R)-3-(5-cyclopropylpyrazin-2-yl)-7-hydroxy-2-oxo-1-oxa-3-azaspiro[4.5]decan-7-yl)methyl)-1H-benzo[d]imidazole-6-carbonitrile]

— patent publication US10968209B2, “TRPV4 antagonist” (GlaxoSmithKline Intellectual Property (No.2) Limited, priority 2016, dated 2021)
